The target in assay [1] is Beta-2 adrenergic receptor (Homo sapiens, UniProt P07550). The assay is described as follows: Adrenergic Receptor Binding Assay: The study of binding to human adrenergic beta1 and beta2 receptors was performed using commercial membranes prepared from Sf9 cells where they are overexpressed (Perkin Elmer). The membrane suspensions (16 μg/well for beta1 and 5 μg/well for beta2) in assay buffer (75 mM Tris/HCl with 12.5 mM MgCl2 and 2 mM EDTA pH=7.4) were incubated with 0.14 or 0.6 nM of 3H-CGP12177 (Amersham) for beta 1 and beta 2 receptors respectively in a final volume of 250 μl, in GFC Multiscreen 96 well plates (Millipore) previously treated with assay buffer containing 0.3% PEI (Sigma). Non specific binding was measured in the presence of 1 μM propanolol. Incubation was maintained for 60 minutes at room temperature and with gentle shaking. The binding reactions were terminated by filtration and washing with 2.5 volumes of Tris/HCl 50 mM pH=7.4. The assay is classed as cell membranes.

For assay [2], the target named is Muscarinic acetylcholine receptor M3 (Homo sapiens, UniProt P20309). The assay can be described thus: Muscarinic Receptor Binding Assay: The study of binding to human muscarinic M1, M2, M3, M4 and M5 receptors was performed using commercial membranes (Perkin Elmer) prepared from CHO-K1 cells. Radioligand binding experiments were conducted in 96 polypropylene well plates in a total volume of 200 μl. All reagents were dissolved in assay binding buffer (PBS with calcium and magnesium, SIGMA), except compounds that were dissolved in DMSO 100%. Non-specific binding (NSB) was measured in the presence of 1 μM atropine. [3H]-NMS was used as the radioligand at a concentration of 1 nM for M2, M3 and M5 and 0.3 nM for M1 and M4. [3H]-NMS and antagonists were incubated with membranes that express human muscarinic receptors M1, M2, M3, M4 and M5 at concentrations of 8.1, 10, 4.9, 4.5 and 4.9 μg/well, respectively. After an incubation period of two hours with gentle shaking, 150 μl of the reaction mix were transferred to 96 GF/C filter plates (Millipore), previously treated with wash buffer (Tris 50 mM; NaCl 100 mM; pH: 7.4), containing 0.05% PEI (Sigma) during one hour. Bound and free [3H]-NMS were separated by rapid vacuum filtration in a manifold from Millipore and washed four times with ice cold wash buffer. After drying 30 min, 30 μl of OPTIPHASE Supermix were added to each well and radioactivity quantified using a Microbeta microplate scintillation counter. It counts as cell-based.

Results on 3 compounds are retold here after ChEMBL document CHEMBL3886646, “Cyclohexylamine derivatives having β2 adrenergic agonist and M3 muscarinic antagonist activities” (2016).

What is called IC50 is the point on the concentration scale where inhibition reaches its midpoint.

Sequence of Muscarinic acetylcholine receptor M3 (P20309 whole entry): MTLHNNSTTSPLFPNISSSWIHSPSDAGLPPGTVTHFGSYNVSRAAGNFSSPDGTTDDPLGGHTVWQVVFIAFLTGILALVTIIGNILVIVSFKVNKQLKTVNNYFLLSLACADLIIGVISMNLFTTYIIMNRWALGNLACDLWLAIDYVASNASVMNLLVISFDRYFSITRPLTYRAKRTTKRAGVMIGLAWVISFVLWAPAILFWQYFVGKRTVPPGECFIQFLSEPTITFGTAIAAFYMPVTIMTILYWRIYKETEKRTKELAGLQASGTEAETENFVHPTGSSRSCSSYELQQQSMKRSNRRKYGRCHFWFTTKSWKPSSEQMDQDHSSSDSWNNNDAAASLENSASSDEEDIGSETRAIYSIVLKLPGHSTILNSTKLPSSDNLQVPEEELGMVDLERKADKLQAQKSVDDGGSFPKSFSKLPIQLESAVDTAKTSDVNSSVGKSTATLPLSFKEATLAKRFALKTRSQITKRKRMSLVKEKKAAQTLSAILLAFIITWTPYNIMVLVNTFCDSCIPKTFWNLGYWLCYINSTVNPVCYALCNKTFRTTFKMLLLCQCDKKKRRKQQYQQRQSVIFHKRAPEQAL
Sequence of Beta-2 adrenergic receptor (P07550 whole entry): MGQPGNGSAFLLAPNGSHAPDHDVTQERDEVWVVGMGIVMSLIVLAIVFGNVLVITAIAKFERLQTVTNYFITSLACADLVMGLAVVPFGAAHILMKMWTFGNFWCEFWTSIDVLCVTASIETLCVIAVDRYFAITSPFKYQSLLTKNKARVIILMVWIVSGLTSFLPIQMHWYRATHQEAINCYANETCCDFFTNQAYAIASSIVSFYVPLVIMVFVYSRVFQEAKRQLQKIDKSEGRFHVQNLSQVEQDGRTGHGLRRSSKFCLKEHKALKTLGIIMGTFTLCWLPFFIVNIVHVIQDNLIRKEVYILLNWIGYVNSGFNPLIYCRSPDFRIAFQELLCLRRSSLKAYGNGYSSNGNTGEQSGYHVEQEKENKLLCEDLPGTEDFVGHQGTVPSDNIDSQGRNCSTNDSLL

`CN(CCOc1ccc(CCNC[C@H](O)c2ccc(O)c3[nH]c(=O)ccc23)cc1)C1CCC(OC(=O)C(O)(c2cccs2)c2cccs2)CC1` (stereo partly specified): the IC50 in assay [1] turned out to be 36 nM; in assay [2], 1.3 nM.
As for `CN(CCC(=O)Nc1ccc(CNC[C@H](O)c2ccc(O)c3[nH]c(=O)ccc23)cc1Cl)[C@H]1CC[C@H](OC(=O)C(O)(c2cccs2)c2cccs2)CC1`, the results for the IC50 in assay [1] and in assay [2] were 6.7 nM and 2.2 nM, respectively.
On the same counts, the results for `COc1cc(NC(=O)CCN(C)[C@H]2CC[C@H](OC(=O)C(O)(c3cccs3)c3cccs3)CC2)c(Cl)cc1CNC[C@H](O)c1ccc(O)c2[nH]c(=O)ccc12` are 8.5 nM and 1.1 nM.
